Where a name gives a salt, the structure may show the parent alone. Read-outs that look alike come from different tables or passages of the source.
What was measured:
[1] = system: T. b. brucei L427 WT bloodstream form; assay: Activity against T. brucei bloodstream forms (resazurin-based assay); assay type: cell-based; conditions: Trypanosoma brucei; 10 μM, 72 h; read-out: Single Dose Assay 10μM Mean Inhibitory Activity (%) ± SD
Description: Trypanosoma brucei brucei Lister 427 bloodstream forms were grown at 37 °C, 5% CO2 in complete HMI-9 medium supplemented with 10% foetal calf serum (FCS) and 100 UI/mL of penicillin/streptomycin. […] The efficacy of compounds against T. brucei bloodstream forms was evaluated using a modified resazurin-based assay previously described. Mid-log bloodstream forms were added to an equal volume of serial dilutions of compounds in supplemented complete HMI-9 medium at a final cell density of 5 × 10^3/mL. Following incubation for 72 h at 37 °C 5% CO2, 20 μL of a 0.5 mM resazurin solution was added and plates were incubated for a further 4 h under the same conditions. Fluorescence was measured at 540 nm and 620 nm excitation and emission wavelength, respectively, using a Synergy 2 Multi-Mode Reader (Biotek, Winooski, VT, USA).

[2] = system: L. infantum MHOM/TN/80/LEM235 intracellular amastigotes; assay: Activity against L. infantum MHOM/TN/80/LEM235 intramacrophage amastigotes (infected THP-1, Giemsa staining); assay type: cell-based, Leishmania infantum; conditions: for Selectivity Index CC50/IC50: CC50 THP-1 / IC50 L. infantum MHOM/TN/80/LEM235; for IC50: Leishmania infantum, read-out: L. infantum MHOM/TN/80/LEM235 intracellular amastigotes IC50 ± SD
Description: THP-1 cells were differentiated with […] retinoic acid (Sigma, Saint Louis, MI, USA) for 3 days at 37 °C and 5% CO2. Infection of THP-1 cells with promastigotes was achieved by mixing the THP-1 and the parasite cultures at a ratio of 1:4 and incubation at 37 °C and 5% CO2. The next day cells were washed by centrifugation at 400 × g for 10 min, the pellet was resuspended in RPMI medium, and the suspension was overlaid with an equal volume of Histopaque 1077 (Invitrogen, Waltham, MA, USA). The free promastigotes were removed by centrifugation at 1000 × g for 20 min. The cell layer was washed with PBS twice and resuspended in RPMI at 4 × 10^5 cells/mL. Infection rate was assessed microscopically by Giemsa staining of the infected THP-1 suspension. An amount of 200 µL of infected THP-1 was plated in a 24-well tissue culture plate (Cellstar®, Greiner) (Sigma-Aldrich Chemie GMBH, Taufkirchen, Germany) and mixed with an equal volume of the appropriate compound concentration (compounds were dissolved in DMSO/ethanol, 50/50 v/v, to a final concentration of 65 mM and linear 5-fold dilutions ranging from 100 to 0.8 µM were done in the culture medium). Incubation proceeded for 72 h at 37 °C and 5% CO2, and the percentage of infected cells was monitored microscopically after Giemsa staining.

[3] = set-up: method as in PMID 18472998, PMID 22573856; conditions: in humans ref 12,13; cited from earlier work
[4] = system: T. cruzi epimastigotes (Y strain); assay: Antiproliferative assay on T. cruzi epimastigotes; assay type: cell-based; conditions: Trypanosoma cruzi
Description: T. cruzi epimastigotes (Y strain) were obtained by axenic cultivation in the LIT medium, supplemented with 10% FBS (Cultilab, São Paulo, Brazil). Cultures were maintained at […] for 4–5 days until they reached the log growth phase. New cultures were made every 4 days from the initial inoculum of 2 × 10^6 parasites/mL. T. cruzi trypomastigotes (Y strain) were maintained in culture by the infection of LLC-MK2 (ATTC-CCL7) epithelial cells. This cell line was cultured in […] tissue culture bottles (TPP) in RPMI 1640 medium (Gibco), (Thermo Fischer Scientific, Carlsbad, CA, USA) supplemented with 10% FBS (Gibco) (Thermo Fischer Scientific, Carlsbad, CA, USA). Cultures were maintained at 37 °C under 5% CO2 atmosphere, and RPMI 1640 medium and SFB were exchanged every 48 h. After confluence, the cultures were treated with 1 mL of a mixture of trypsin and versene (Sigma, São Paulo, Brazil) (0.2 and 0.002%, respectively). After 24 h, a subconfluence culture was infected with the trypomastigotes in the approximate proportion of 10:1 parasites/cell. From five to seven days post infection, the trypomastigote stage was obtained from the culture supernatant. Alternatively (Figure 2), T. cruzi strain Y was maintained as previously described.
The trypomastigotes were obtained from the supernatant of a previously infected cell line (LLC-MK2). Between 5 and 7 days after infection, protozoa were collected from the supernatants of the infected LLC-MK2 cells and were then incubated with fresh RPMI 1640 medium supplemented with 0.5% FBS, with or without the compounds, for 24 h at 37 °C under a 5% CO2 atmosphere. […] The experiment was performed in duplicate for each of the three different experiments. For the antiproliferative assay involving epimastigotes, […] were cultivated in LIT medium supplemented with 10% FBS. After 24 h of epimastigote growth, different concentrations of 50 nM to 50 µM were added to the culture and incubated for 120 h at 28 °C. Cells were collected every 24 h for counting in a Neubauer chamber. Two controls were used and consisted of liver infusion broth-tryptose (LIT) supplemented with 10% FBS and LIT added with 0.01% DMSO. To investigate the effect of the compounds on intracellular amastigotes, peritoneal macrophages from Swiss mouse (CF1) plated in 96 wells plates (Costar®, Sigma, São Paulo, Brazil) were incubated for 2 h with T. cruzi trypomastigotes at a ratio of 10 parasites to 1 cell. The non-internalized parasites were removed by washing with the RPMI 1640 medium, and the host cells were incubated for 24 h at 37 °C to allow full internalization and differentiation of trypomastigotes to amastigotes. Fresh 10% FBS-RPMI 1640 medium with 1 µg/mL Hoescht 3348 and 1 µg/mL of WGA-FITC (control) or the same solution containing the inhibitors was added to the infected cells, which were then incubated for 96 h at 37 °C. Every 24 h samples were taken and analysed in high content equipment (InCell Analyser 2000, GE Healthcare, Chicago, IL, USA) with 20× air objective (NA 0.4) using respectively filters to excitation and emission to DAPI (405/455 nm), FITC (488/505 nm) and Cy3 (514/605 nm). Six images were collected for each well for reliable statistical analysis. […] The infection index (i.e., the percentage of infected host cells multiplied by the average number of intracellular amastigotes per infected host cell) was determined by counting a total of 500 host cells. Inhibitor activity was calculated using the SigmaPlot (version 10) program (Systat Software, Inc., San Jose, CA, USA). The results are expressed as the mean values from three independent experiments. The IC50 was calculated for promastigotes and intracellular amastigotes by fitting the values to a non-linear curve analysis. The regression analyses were performed with SigmaPlot 10 (version 10) program (Systat Software, Inc., San Jose, CA, USA).

[5] = system: T. cruzi intracellular amastigotes (Y strain); assay: T. cruzi intracellular amastigotes in Swiss mouse peritoneal macrophages (high content imaging); assay type: cell-based; conditions: Trypanosoma cruzi, Peritoneal macrophage
Description: The trypomastigotes were obtained from the supernatant of a previously infected cell line (LLC-MK2). Between 5 and 7 days after infection, protozoa were collected from the supernatants of the infected LLC-MK2 cells and were then incubated with fresh RPMI 1640 medium supplemented with 0.5% FBS, with or without the compounds, for 24 h at 37 °C under a 5% CO2 atmosphere. […] The experiment was performed in duplicate for each of the three different experiments. […] To investigate the effect of the compounds on intracellular amastigotes, peritoneal macrophages from Swiss mouse (CF1) plated in 96 wells plates (Costar®, Sigma, São Paulo, Brazil) were incubated for 2 h with T. cruzi trypomastigotes at a ratio of 10 parasites to 1 cell. The non-internalized parasites were removed by washing with the RPMI 1640 medium, and the host cells were incubated for 24 h at 37 °C to allow full internalization and differentiation of trypomastigotes to amastigotes. Fresh 10% FBS-RPMI 1640 medium with 1 µg/mL Hoescht 3348 and 1 µg/mL of WGA-FITC (control) or the same solution containing the inhibitors was added to the infected cells, which were then incubated for 96 h at 37 °C. Every 24 h samples were taken and analysed in high content equipment (InCell Analyser 2000, GE Healthcare, Chicago, IL, USA) with 20× air objective (NA 0.4) using respectively filters to excitation and emission to DAPI (405/455 nm), FITC (488/505 nm) and Cy3 (514/605 nm). Six images were collected for each well for reliable statistical analysis. […] The infection index (i.e., the percentage of infected host cells multiplied by the average number of intracellular amastigotes per infected host cell) was determined by counting a total of 500 host cells. Inhibitor activity was calculated using the SigmaPlot (version 10) program (Systat Software, Inc., San Jose, CA, USA). The results are expressed as the mean values from three independent experiments. The IC50 was calculated for promastigotes and intracellular amastigotes by fitting the values to a non-linear curve analysis. […]

[6] = epimastigotes, 24 h, read-out: IC50 24 h
[7] = epimastigotes, 48 h, read-out: IC50 48 h
[8] = epimastigotes, 72 h, read-out: IC50 72 h

C[N+](C)(C)CCOP(=O)([O-])OCCCCCCCCCCCn1cc(CC2CCCC2)nn1 [Compound 28, 11-(4-(cyclopentylmethyl)-1H-1,2,3-triazol-1-yl)undecyl (2-(trimethylammo nio)ethyl) phosphate inner salt]
inhibition at 10 µM [1]: < 20% | Selectivity Index CC50/IC50 [2]: > 66.7 | IC50 ([2]; infected THP-1 cells, 72 h): 1.5 ± 0.4 µM

CCCCCCCCCCCCCCCCOP(=O)([O-])OCC[N+](C)(C)C [Miltefosine, hexadecylphosphocholine, reference compound]
half-life [3]: 100 to 200 h | Selectivity Index CC50/IC50 [2]: 4.9 | IC50 ([2]; THP-1, 72 h): 6.68 ± 0.96 µM | IC50 ([4]; 24 h, read-out: IC50 24 h): 18.4 ± 1.2 µM | IC50 ([4]; 48 h, read-out: IC50 48 h): 9.5 ± 0.9 µM | IC50 ([4]; 72 h, read-out: IC50 72 h): 8.34 µM | IC50 ([5]; 24 h, read-out: IC50 24 h): 12.4 ± 0.6 µM | IC50 ([5]; 48 h, read-out: IC50 48 h): 4.59 ± 0.1 µM | IC50 ([5]; 72 h, read-out: IC50 72 h): 4.3 ± 0.12 µM

CCCCCc1cn(CCCCCCCCCCCOP(=O)([O-])OCC[N+](C)(C)C)nn1 [Compound 25, 11-(4-pentyl-1H-1,2,3-triazol-1-yl)undecyl (2-(trimethylammonio)ethyl) phosphate inner salt]
Selectivity Index CC50/IC50 [2]: > 10.7 | IC50 ([2]; infected THP-1 cells, 72 h): 9.33 ± 0.99 µM | IC50 [4, 6]: 7.8 µM | IC50 [4, 7]: 3.85 µM | IC50 [4, 8]: 2.16 µM

C[N+](C)(C)CCOP(=O)([O-])OCCCCCCCCCCCn1cc(CC2CCCCC2)nn1 [Compound 29, 11-(4-(cyclohexylmethyl)-1H-1,2,3-triazol-1-yl)undecyl (2-(trimethylammonio)ethyl) phosphate inner salt]
Selectivity Index CC50/IC50 [2]: > 200 | IC50 ([2]; infected THP-1 cells, 72 h): 0.5 ± 0.2 µM | IC50 [4, 6]: > 10 µM | IC50 [4, 7]: > 10 µM | IC50 [4, 8]: > 10 µM

C[N+](C)(C)CCOP(=O)([O-])OCCCCCCCCCCCn1cc(CCCCCCCCNC(=O)OCc2ccccc2)nn1 [Compound 32, 11-(4-(8-(((benzyloxy)carbonyl)amino)octyl)-1H-1,2,3-triazol-1-yl)undecyl (2-(trimethylammonio)ethyl) phosphate inner salt]
inhibition at 10 µM [1]: 36 ± 4%

C[N+](C)(C)CCCOP(=O)([O-])OCCCCCCCCCCCn1cc(CC2CCCCC2)nn1 [Compound 33, 11-(4-(cyclohexylmethyl)-1H-1,2,3-triazol-1-yl)undecyl (3-(trimethylammonio)propyl) phosphate inner salt]
inhibition at 10 µM [1]: 23 ± 3%

C[N+](C)(C)CCOP(=O)([O-])OCCCCCn1cc(CCCCCCCCNC(=O)OCc2ccccc2)nn1 [Compound 31, 5-(4-(8-(((benzyloxy)carbonyl)amino)octyl)-1H-1,2,3-triazol-1-yl)pentyl (2-(trimethylammonio)ethyl) phosphate inner salt]
inhibition at 10 µM [1]: 20 ± 1%
